# Experiments:
# [1] = system: CSF1R; design: method as in PMID 33757319; conditions: rhesus monkey; cited from earlier work
# [2] = molecular target: T1, CSF1R (Homo sapiens, UniProt P07333); experiment: FRET-based Z'-LYTE kinase assay, binding affinity for CSF1R; format: biochemical; conditions: FRET-based method, 1 mM ATP, mean ± S.D. of three measurements
# T1 construct: purchased Abcam
# Description: The binding affinity of ligand 1 for CSF1R was measured using a fluorescence resonance energy transfer (FRET)-based method.
# The final concentration of DMSO in the incubation mixture was 1%. The mixtures were incubated at room temperature for 1 h, followed by development reaction incubations at room temperature for 1 h. The fluorescence intensity of the incubation mixtures was measured (excitation, 400 nm; emission, 445 nm (donor) and 520 nm (acceptor)) using a Mithras^2 LB 943 monochromator multimode microplate reader (Berthold Technologies, Bad Wildbad, Germany), and the phosphorylation extent of the FRET-peptide was calculated. All experiments were performed in triplicate, and the IC50 values represent the average of three experimental determinations.
# [3] = dynamic microPET/CT imaging, whole brain time activity curve; format: in vivo, ICR mice; conditions: control and LPS mouse, whole brain TAC
# Source text: Dynamic PET/CT images of control and LPS mice were acquired, and the brain uptake was higher in the LPS mouse than in the control mouse (Figure 4A). […] In the control mouse, there was uptake in the decreasing order of the thalamus, striatum, hypothalamus, frontal cortex, and cerebellum (Figure 4C). In the 5.5-week-old mice used in our study, the frontal cortex and cerebellum had similar levels of uptake, although the cerebral cortex has markedly higher CSF1R expression than does the cerebellum in older adult mice. In the LPS mouse, a pattern similar to that of the control mouse was observed, with high uptake in the thalamus and striatum, and intermediate to low uptake in the hypothalamus, cerebellum, and frontal cortex (Figure 4C).
# Dynamic PET scans of mice (one control and one LPS) were initiated simultaneously with tail vein injection of [^18F]1 (7.4 ± 0.1 MBq/mouse) and performed for 60 min (15 s × 8 frames, 30 s × 10 frames, 60 s × 3 frames, 240 s × 5 frames, 300 s × 6 frames, 32 frames in total); CT images followed for 20 min. […]
# Analysis of dynamic PET data was performed using the PMOD 3.308 software (PMOD Technologies, Zurich, Switzerland). […] Several volumes of interest (VOIs) were determined on the mouse brain template: whole brain, striatum (mean value of the left and right striata), thalamus, hypothalamus, frontal cortex, and cerebellum. […]
# [4] = octanol-water partition coefficient; format: physicochemical; conditions: 1-octanol/water; read-out: log P (octanol-water partition coefficient)
# Description: Radioligand [^18F]1 was dissolved in 800 μL 1-octanol and mixed with 800 μL water, vortexed vigorously for 5 min, and centrifuged. Two layers were separated, and 100 μL aliquots of the 1-octanol and aqueous layers were removed and counted. Samples from the 1-octanol and aqueous layers were repartitioned until consistent values were obtained. The log P is expressed as the logarithm of the ratio of the counts per minute from octanol versus that of water.
# [5] = ex vivo biodistribution in control, LPS and LPS+block mice; design: species or system ICR mice; conditions: for blood uptake / brain uptake / femur uptake / kidney uptake / liver uptake / muscle uptake / spleen uptake: 45 min after i.v. injection, n = 4
# Description: Ex vivo biodistribution studies were performed in three groups of mice (control, LPS, and LPS+block groups) at 45 min after intravenous (i.v.) injection of [^18F]1. […] Therefore, we performed the ex vivo biodistribution studies at 45 min after injection of [^18F]1 (Table 2). […] The relatively low level of inhibition can be attributed to the injection route and time of the blocking agent, i.p. administration 5 min prior to radioligand injection, which might not have allowed time for sufficient blocking. However, most of the PET radioligands currently developed for CSF1R imaging have low uptake or high non-specific binding in the brains of rodents and non-human primates. […] In this context, further blocking studies of [^18F]1 need to be conducted using the optimized injection time points of the blocking agents and using other potent CSF1R inhibitors as the blocking agents. […] In addition, these biodistribution data matched with the whole-body PET images of the control and LPS mice (Figure S2).
# ICR male mice aged between 5 and 6 weeks were used in this study. The mice were provided drinking water and a normal diet ad libitum and were maintained under a 12 h light-dark cycle at 24 ± 1 °C with 50% humidity. The LPS-treated mouse model was prepared by injecting LPS (10 mg/kg in saline) i.p. into mice, and all experiments were carried out on the third day after LPS injection. Tissue radioactivity was counted using an automatic gamma counter (PerkinElmer, Waltham, MA, USA). MicroPET/CT images were acquired using an Inveon microPET/CT scanner (Siemens Medical Solutions, Knoxville, TN, USA).
# ICR mice were divided into three groups: control, LPS, and LPS+block groups (n = 4 per group). […] Control and LPS-treated mice were injected i.p. with 100 μL of vehicle (10% DMSO-saline) at 5 min prior to the radioligand injection. At 45 min after radioligand injection, mice were sacrificed by cervical dislocation, and the blood and major tissues (brain, muscle, femur, liver, spleen, and kidney) were separated, weighed, and counted. Data are expressed as a percentage of injected dose per gram of tissue (% ID/g).
# [6] = molecular target: T1, CSF1R; experiment: binding study of radioligand on CSF1R-coated well plates
# Description: A binding study of radioligand [^18F]1 for CSF1R was also performed using well plates coated with CSF1R.
# A binding study of [^18F]1 for CSF1R was performed using detachable 96-well polystyrene plates (Nest Scientific, Rahway, NJ, USA). The plates were coated with 50 μL of CSF1R (200 μg/mL) in 0.05 M carbonate-bicarbonate buffer (pH 9.6). Non-coated plates were used for a control experiment. The CSF1R-coated and non-coated plates were incubated at 4 °C overnight and washed three times with PBS-T (20 mM PBS (pH 7.4) with 0.05% Tween-20). The unoccupied sites were blocked with blocking buffer (5% BSA in PBS-T) at room temperature for 1 h, and the plates were washed three times with PBS-T. [^18F]1 was dissolved in DMSO, and two-fold serial dilutions ranging from 1:100 to 1:400 were made from the radioligand solution. The diluted radioligand solutions were added to the CSF1R-coated and non-coated wells, which were then incubated at room temperature for 1 h. After incubation, the plates were washed three times with PBS-T. The wells were detached, and the radioligand bound to the wells was measured using a gamma counter and expressed as counts per minute (cpm). All experiments were performed in triplicate.
# [7] = metabolism study, HPLC of brain homogenates and blood samples; format: in vivo, ICR mice; conditions: control mice
# Description: In order to confirm that the brain uptake was due to the radioligand, we analyzed the brain homogenates and blood samples of control mice using HPLC. […] However, approximately 65% of the radioligand in the blood samples was converted to polar radiometabolites within 30 min after injection (Figure S3).
# ICR mice (n = 1 per time point) were injected with [^18F]1 (18.5 MBq) via a tail vein. At 5 and 30 min after injection, mice were sacrificed, and samples of brain and blood were obtained. The samples were homogenized in 1 mL of acetonitrile and centrifuged. The supernatants were analyzed by HPLC using an analytical column eluted with a 45:55 mixture of 0.05 M ammonium formate (aq.) and acetonitrile at a flow rate of 1 mL/min. Eluates were monitored using a NaI(T1) radioactivity detector.
# [8] = LPS+block mice (CPPC 1 mg/kg i.p. 5 min before)
# T1 sequence (P07333 20-972, species assumed): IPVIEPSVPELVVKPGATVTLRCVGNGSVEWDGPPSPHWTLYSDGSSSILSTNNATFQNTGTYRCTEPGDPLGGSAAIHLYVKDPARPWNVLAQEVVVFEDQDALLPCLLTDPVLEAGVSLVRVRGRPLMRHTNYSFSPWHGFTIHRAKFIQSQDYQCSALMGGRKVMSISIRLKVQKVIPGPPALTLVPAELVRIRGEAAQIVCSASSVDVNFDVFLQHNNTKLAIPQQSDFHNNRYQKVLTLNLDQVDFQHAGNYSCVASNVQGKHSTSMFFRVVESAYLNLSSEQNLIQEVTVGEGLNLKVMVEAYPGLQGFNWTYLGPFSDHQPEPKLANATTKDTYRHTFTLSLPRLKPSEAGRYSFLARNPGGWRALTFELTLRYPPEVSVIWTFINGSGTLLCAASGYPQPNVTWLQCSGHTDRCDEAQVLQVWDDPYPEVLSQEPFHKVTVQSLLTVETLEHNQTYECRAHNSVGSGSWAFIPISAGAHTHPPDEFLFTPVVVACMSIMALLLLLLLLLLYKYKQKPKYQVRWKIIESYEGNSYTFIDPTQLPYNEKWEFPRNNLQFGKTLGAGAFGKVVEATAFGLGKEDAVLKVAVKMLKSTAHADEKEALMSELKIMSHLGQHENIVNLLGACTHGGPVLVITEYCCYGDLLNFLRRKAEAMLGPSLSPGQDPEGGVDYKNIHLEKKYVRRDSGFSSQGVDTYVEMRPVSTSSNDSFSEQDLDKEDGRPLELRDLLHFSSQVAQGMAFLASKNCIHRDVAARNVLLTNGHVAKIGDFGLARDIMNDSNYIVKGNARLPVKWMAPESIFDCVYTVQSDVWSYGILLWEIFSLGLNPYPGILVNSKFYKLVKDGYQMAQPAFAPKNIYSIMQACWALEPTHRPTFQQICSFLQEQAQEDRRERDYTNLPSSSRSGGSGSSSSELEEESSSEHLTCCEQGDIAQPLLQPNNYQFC
smiles,measurement,setting,value
"COc1ccc(COc2ccc(Cc3cnc(N)nc3N)cc2O[11CH3])cc1 [[^11C]GW2580, 5-(3-[^11C]methoxy-4-((4-methoxybenzyl)oxy)benzyl)pyrimidine-2,4-diamine]",blocking of brain uptake with GW2580,[1],30%
"N#Cc1ccc(C(=O)Nc2ccc(N3CCN(CCF)CC3)cc2N2CCCCC2)o1 [Ligand 1, 5-Cyano-N-(4-(4-(2-fluoroethyl)piperazin-1-yl)-2-(piperidin-1-yl)phenyl)furan-2-carboxamide]",IC50,[2],3.42 ± 0.33 nM
"N#Cc1ccc(C(=O)Nc2ccc(N3CCN(CC[18F])CC3)cc2N2CCCCC2)o1 [[^18F]1, 5-cyano-N-(4-(4-(2-[^18F]fluoroethyl)piperazin-1-yl)-2-(piperidin-1-yl)phenyl)furan-2-carboxamide]",time of peak whole brain uptake after radioligand injection,[3],≤ 3 min
same,logP,[4],2.3 ± 0.01
same,increase of brain uptake in LPS mice compared to control mice,[5]; 45 min after radioligand injection,78%
same,blood uptake,[5]; LPS mice,1.21 ± 0.11 % ID/g
same,brain uptake,[5]; LPS mice,2.14 ± 0.19 % ID/g
same,femur uptake,[5]; LPS mice,1.95 ± 0.44 % ID/g
same,kidney uptake,[5]; LPS mice,2.23 ± 0.08 % ID/g
same,liver uptake,[5]; LPS mice,6.04 ± 0.91 % ID/g
same,muscle uptake,[5]; LPS mice,1.03 ± 0.07 % ID/g
same,spleen uptake,[5]; LPS mice,2.47 ± 0.19 % ID/g
same,blood uptake,[5]; [8],1.30 ± 0.11 % ID/g
same,brain uptake,[5]; [8],1.67 ± 0.16 % ID/g
same,femur uptake,[5]; [8],2.11 ± 0.37 % ID/g
same,kidney uptake,[5]; [8],2.04 ± 0.10 % ID/g
same,liver uptake,[5]; [8],3.15 ± 0.62 % ID/g
same,muscle uptake,[5]; [8],1.20 ± 0.19 % ID/g
same,spleen uptake,[5]; [8],1.45 ± 0.13 % ID/g
same,blood uptake,[5]; control mice,0.93 ± 0.05 % ID/g
same,brain uptake,[5]; control mice,1.20 ± 0.06 % ID/g
same,femur uptake,[5]; control mice,1.80 ± 0.09 % ID/g
same,kidney uptake,[5]; control mice,1.97 ± 0.05 % ID/g
same,liver uptake,[5]; control mice,6.87 ± 0.48 % ID/g
same,muscle uptake,[5]; control mice,0.96 ± 0.10 % ID/g
same,spleen uptake,[5]; control mice,1.58 ± 0.20 % ID/g
same,radioligand bound to CSF1R-coated wells relative to non-coated wells (control),[6]; 0.93 kBq radioligand,3.31 fold
same,radioligand bound to CSF1R-coated wells relative to non-coated wells (control),[6]; 1.85 kBq radioligand,5.07 fold
same,radioligand bound to CSF1R-coated wells relative to non-coated wells (control),[6]; 3.7 kBq radioligand,7.14 fold
same,radioligand in blood converted to polar radiometabolites,"[7]; blood samples, within 30 min after injection",approximately 65%
same,state of radioligand in the brain,[7]; brain homogenates at 5 and 30 min after injection,intact

# Source: paper PMC8954204, “Synthesis and Evaluation of a ^18F-Labeled Ligand for PET Imaging of Colony-Stimulating Factor 1 Receptor” (Pharmaceuticals, 2022)
